Source: US20120208781A1, “AMINOGLYCOSIDE DOSING REGIMENS” (Achaogen, Inc., priority 2009, published 2012)
Converted amounts (≈) assume the structure as drawn. “And” between values parts separate entries of the source, which are not always exact repeats. Equal values may be shown once. Read-outs that look alike come from different tables or passages of the source.

Experiments:
[1] = Pharmacokinetics of Compound 1 after single bolus IV injection in beagle dogs (plasma); type: in vivo; details: for AUC(0-inf) / C0 / clearance / MRT inf / Vd: iv; for MRT inf: read-out: MRT0-∞
Protocol: Male CD-1 mice, Sprague Dawley rats, and beagle dogs were administered Compound 1 intravenously. Compound 1 was preformulated as a sterile isotonic solution of 10 mg/mL in PBS. Specifically, male CD-1 mice were administered a single bolus IV injection of the Compound at 10 mg/kg, via a bolus IV injection into the tail vein. Two blood samples per mouse were collected by retro-orbital puncture into tubes containing the anticoagulant K2EDTA prior to dosing and at 0.033, 0.083, 0.25, 0.5, 1 and 24 hours. Rats were administered Compound 1 at 10 mg/kg via a bolus IV injection into the tail vein. Twelve blood samples per rat were collected via a jugular vein cannula into tubes containing the anticoagulant K2EDTA at various timepoints (i.e., 0.033, 0.083, 0.25, 0.5, 1, 2, 4, 6, 8, 10, 12, and 24 hours). Male beagle dogs were administered Compound 1 at 10 mg/kg through a temporary percutaneous catheter placed in a peripheral vein. Whole blood samples (0.5 mL) were collected from each dog prior to dosing and at 0.033, 0.083, 0.25, 0.5, 1, 2, 4, 6, 8, and 24 hours via direct venipuncture of a jugular or cephalic vein into tubes containing the anticoagulant K2EDTA. A sparse sampling method was employed to conserve animals and provide the best data possible from fewer mice. Samples were centrifuged, and plasma was collected and transferred into a new tube and frozen at −80° C. until they were analyzed.
Blood, urine, and kidney samples collected over 24 hours were analyzed for Compound 1 levels using LC-MS/MS. Method performance was acceptable in the concentration ranges necessary to determine plasma levels. Compound 1 plasma concentrations were determined by comparing Compound 1 concentration in the sample to a standard curve derived from LC-MS/MS measurements of the analyte. The standard curve fit was linear with a 1/x^2 weighting.
Bioanalytical data analyses were carried out using Analyst software (version 1.4.1, Applied Biosystems, Toronto, ON, Canada). […] PK parameters were determined by noncompartmental analysis using WinNonLin. Plasma protein binding was determined using equilibrium dialysis. In vitro stability was determined using commercially available plasma, microsomes and hepatocytes.

Acinetobacter spp. (ACB) = test: MIC, CLSI broth microdilution, worldwide isolates: Acinetobacter spp.; type: cell-based
Description: In the first study, a total of 235 isolates were collected from medical centers worldwide and tested for susceptibility to Compound 1 and comparator agents by CLSI broth microdilution methods. […] Non-ENT GN pathogens included WT P. aeruginosa (PSA) and Acinetobacter spp. (ACB), and carbapenem (CARB)-R strains, including those with MBL and OXA enzymes, SA and coagulase-negative staphylococci (CoNS) included oxacillin-susceptible (MSSA/MS-CoNS) and —R (MRSA/MR-CoNS) strains.
Minimum inhibitory concentrations (MIC) were determined by reference Clinical and Laboratory Standards Institute (CLSI) broth microdilution methods per M7-A7 [2006]. Briefly, serial two-fold dilutions of Compound 1 and comparator AGs (together, “the test compounds”) were prepared at 2× concentration in appropriate diluent. The dilutions were mixed in 96-well assay plates with bacterial inoculum. Bacteria were suspended in sterile saline and added to each assay plate to obtain a final concentration of 5.5×10^5 CFU/mL. The plates were incubated at 35° C. for 20 hours in ambient air. […] After incubation, assay plates were read using a microtiter plate reader at 600 nm.

[2] = Prediction of human plasma levels and half-life of Compound 1 from mouse, rat and dog data (allometric scaling); details: humans
Protocol: The PK profile of Compound 1 supports use of high doses in short infusions, administered once-daily to achieve high Cmax and AUC, which are important for both efficacy and safety.
In the phase 1 clinical studies described herein, Compound 1 was administered over a short infusion time period of 10 minutes. Based upon allometric scaling of the mouse, rat and dog nonclinical data, the Cmax associated with longer infusion time periods was predicted, as summarized in Table 21. As shown, longer infusion time periods are associated with lower Cmax, resulting in a lower Cmax to AUC ratio.

[3] = beagle dogs, 10 mg/kg single bolus IV, Mean ± SD, 10 mg/kg
[4] = male, beagle, dog, plasma, 10 mg/kg, beagle dogs, 10 mg/kg single bolus IV, Dog 601
[5] = male, beagle, dog, plasma, 10 mg/kg, beagle dogs, 10 mg/kg single bolus IV, Dog 602
[6] = male, beagle, dog, plasma, 10 mg/kg, beagle dogs, 10 mg/kg single bolus IV, Dog 603
[7] = male, beagle, dog, plasma, 10 mg/kg, beagle dogs, 10 mg/kg single bolus IV, Mean ± SD

CN[C@@H]1[C@@H](O)[C@@H](O[C@@H]2[C@@H](O)[C@H](O[C@H]3OC(CNCCO)=CC[C@H]3N)[C@@H](N)C[C@H]2NC(=O)[C@@H](O)CCN)OC[C@]1(C)O [Compound 1, 6′-(2-Hydroxy-ethyl)-1-(4-amino-2(S)-hydroxy-butyryl)-sisomicin]
HL Lambda Z ([1]; beagle dogs, 10 mg/kg single bolus IV, Dog 601): 1.18 h
HL Lambda Z ([1]; beagle dogs, 10 mg/kg single bolus IV, Dog 602): 1.24 h
HL Lambda Z ([1]; beagle dogs, 10 mg/kg single bolus IV, Dog 603): 1.23 h
AUC0-∞ [1, 3]: 82600 ± 11500 ng·h/mL
HL Lambda Z [1, 3]: 1.22 h and 1.22 ± 0.03 h
half-life ([1]; male, beagle, dog, plasma, intravenous, 10 mg/kg, dogs, read-out: t½ (renal clearance) (converted)): ~1 h
AUC(0-inf) [1, 4]: 69400 ng·h/mL
C0 [1, 4]: 134 µg/mL
clearance [1, 4]: 2.4 mL/min/kg
MRT inf [1, 4]: 1.26 h
Vd ([1]; male, beagle, dog, plasma, 10 mg/kg, beagle dogs, 10 mg/kg single bolus IV, Dog 601, read-out: Vss): 0.181 L
AUC(0-inf) [1, 5]: 88700 ng·h/mL
C0 [1, 5]: 119 µg/mL
clearance [1, 5]: 1.88 mL/min/kg
MRT inf [1, 5]: 1.32 h
Vd ([1]; male, beagle, dog, plasma, 10 mg/kg, beagle dogs, 10 mg/kg single bolus IV, Dog 602, read-out: Vss): 0.149 L
AUC(0-inf) [1, 6]: 89700 ng·h/mL
C0 [1, 6]: 106 µg/mL
clearance [1, 6]: 1.85 mL/min/kg
MRT inf [1, 6]: 1.45 h
Vd ([1]; male, beagle, dog, plasma, 10 mg/kg, beagle dogs, 10 mg/kg single bolus IV, Dog 603, read-out: Vss): 0.162 L
AUC(0-inf) [1, 7]: 83000 ng·h/mL
C0 [1, 7]: 120 µg/mL
clearance [1, 7]: 2.05 mL/min/kg
MRT inf [1, 7]: 1.34 h
Vd ([1]; male, beagle, dog, plasma, 10 mg/kg, beagle dogs, 10 mg/kg single bolus IV, Mean ± SD, read-out: Vss): 0.164 ± 0.016 L
Vd ([1]; male, beagle, dog, plasma, 10 mg/kg, beagle dogs, 10 mg/kg single bolus IV, mean, read-out: volume of distribution at steady state): 0.164 L/kg
Cumulative % inhibited at Cmpd. MIC 1 (Acinetobacter spp. (ACB); ACB (30)): 10.0%
Cumulative % inhibited at Cmpd. MIC 2 (Acinetobacter spp. (ACB); ACB (30)): 23.3%
Cumulative % inhibited at Cmpd. MIC 4 (Acinetobacter spp. (ACB); ACB (30)): 26.7%
Cumulative % inhibited at Cmpd. MIC 8 (Acinetobacter spp. (ACB); ACB (30)): 66.7%
Cumulative % inhibited at Cmpd. MIC 16 (Acinetobacter spp. (ACB); ACB (30)): 70.0%
Cumulative % inhibited at Cmpd. MIC 32 (Acinetobacter spp. (ACB); ACB (30)): 90.0%
Cumulative % inhibited at Cmpd. MIC 64 (Acinetobacter spp. (ACB); ACB (30)): 100.0%
Cumulative % inhibited at Cmpd. MIC ≦0.5 (Acinetobacter spp. (ACB); ACB (30)): 3.3%
Cumulative % inhibited at Cmpd. MIC 1 (Acinetobacter spp. (ACB); ACB, CARB-R (20)): 15.0%
Cumulative % inhibited at Cmpd. MIC 2 (Acinetobacter spp. (ACB); ACB, CARB-R (20)): 30.0%
Cumulative % inhibited at Cmpd. MIC 4 (Acinetobacter spp. (ACB); ACB, CARB-R (20)): 30.0%
Cumulative % inhibited at Cmpd. MIC 8 (Acinetobacter spp. (ACB); ACB, CARB-R (20)): 70.0%
Cumulative % inhibited at Cmpd. MIC 16 (Acinetobacter spp. (ACB); ACB, CARB-R (20)): 75.0%
Cumulative % inhibited at Cmpd. MIC 32 (Acinetobacter spp. (ACB); ACB, CARB-R (20)): 95.0%
Cumulative % inhibited at Cmpd. MIC 64 (Acinetobacter spp. (ACB); ACB, CARB-R (20)): 100.0%
Cumulative % inhibited at Cmpd. MIC ≦0.5 (Acinetobacter spp. (ACB); ACB, CARB-R (20)): 5.0%
Cumulative % inhibited at Cmpd. MIC 1 (Acinetobacter spp. (ACB); ACB, WT (10)): 0.0%
Cumulative % inhibited at Cmpd. MIC 2 (Acinetobacter spp. (ACB); ACB, WT (10)): 10.0%
Cumulative % inhibited at Cmpd. MIC 4 (Acinetobacter spp. (ACB); ACB, WT (10)): 20.0%
Cumulative % inhibited at Cmpd. MIC 8 (Acinetobacter spp. (ACB); ACB, WT (10)): 60.0%
Cumulative % inhibited at Cmpd. MIC 16 (Acinetobacter spp. (ACB); ACB, WT (10)): 60.0%
Cumulative % inhibited at Cmpd. MIC 32 (Acinetobacter spp. (ACB); ACB, WT (10)): 80.0%
Cumulative % inhibited at Cmpd. MIC 64 (Acinetobacter spp. (ACB); ACB, WT (10)): 100.0%
Cumulative % inhibited at Cmpd. MIC ≦0.5 (Acinetobacter spp. (ACB); ACB, WT (10)): 0.0%
MIC50 (Acinetobacter spp. (ACB); Acinetobacter, ACB isolates): 8 µg/mL (≈ 13.5 µM)
MIC90 (Acinetobacter spp. (ACB); Acinetobacter, ACB isolates): 32 µg/mL (≈ 54 µM)
predicted Cmax with longer infusion time periods [2]: lower Cmax
